Measurements from BindingDB's records for doi:10.1016/s0960-894x(98)00583-6 (Novartis Horsham Research Center, 1999).

Molecular target: cGMP-inhibited 3',5'-cyclic phosphodiesterase 3A/3B (Homo sapiens, UniProt Q13370+Q14432)
Assay: Inhibition of phosphodiesterase (PDE) 3

Chain of cGMP-inhibited 3',5'-cyclic phosphodiesterase 3A/3B (Q14432 whole entry): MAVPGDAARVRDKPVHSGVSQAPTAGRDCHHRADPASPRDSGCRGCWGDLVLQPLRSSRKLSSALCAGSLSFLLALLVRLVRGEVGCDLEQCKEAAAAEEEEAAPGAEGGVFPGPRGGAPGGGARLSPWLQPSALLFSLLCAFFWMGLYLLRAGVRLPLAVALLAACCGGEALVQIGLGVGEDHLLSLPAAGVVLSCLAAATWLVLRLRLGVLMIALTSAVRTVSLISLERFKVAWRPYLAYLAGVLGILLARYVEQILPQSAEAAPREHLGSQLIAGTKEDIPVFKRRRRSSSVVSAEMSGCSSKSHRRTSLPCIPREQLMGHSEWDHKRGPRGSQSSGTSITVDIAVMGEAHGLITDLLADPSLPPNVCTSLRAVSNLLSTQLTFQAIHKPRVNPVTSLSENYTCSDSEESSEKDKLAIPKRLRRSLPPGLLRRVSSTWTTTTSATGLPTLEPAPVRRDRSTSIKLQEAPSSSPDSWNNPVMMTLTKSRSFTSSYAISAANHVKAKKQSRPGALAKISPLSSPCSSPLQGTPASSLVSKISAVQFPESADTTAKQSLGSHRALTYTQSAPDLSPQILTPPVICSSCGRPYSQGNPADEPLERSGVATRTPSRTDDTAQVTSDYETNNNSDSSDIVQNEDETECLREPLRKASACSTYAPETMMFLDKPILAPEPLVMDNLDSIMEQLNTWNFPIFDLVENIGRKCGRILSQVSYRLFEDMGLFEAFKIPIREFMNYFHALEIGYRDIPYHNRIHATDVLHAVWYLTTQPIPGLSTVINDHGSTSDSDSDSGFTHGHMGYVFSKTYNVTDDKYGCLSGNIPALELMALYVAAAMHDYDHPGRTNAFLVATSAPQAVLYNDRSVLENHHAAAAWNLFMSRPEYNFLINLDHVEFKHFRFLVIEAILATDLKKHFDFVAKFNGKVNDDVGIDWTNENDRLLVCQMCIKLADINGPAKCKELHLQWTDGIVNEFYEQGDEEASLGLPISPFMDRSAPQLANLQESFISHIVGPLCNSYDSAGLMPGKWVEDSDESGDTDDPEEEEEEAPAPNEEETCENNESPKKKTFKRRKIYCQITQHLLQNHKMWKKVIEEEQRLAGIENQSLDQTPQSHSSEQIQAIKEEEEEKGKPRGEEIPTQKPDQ
Chain of cGMP-inhibited 3',5'-cyclic phosphodiesterase 3A/3B (Q13370 whole entry): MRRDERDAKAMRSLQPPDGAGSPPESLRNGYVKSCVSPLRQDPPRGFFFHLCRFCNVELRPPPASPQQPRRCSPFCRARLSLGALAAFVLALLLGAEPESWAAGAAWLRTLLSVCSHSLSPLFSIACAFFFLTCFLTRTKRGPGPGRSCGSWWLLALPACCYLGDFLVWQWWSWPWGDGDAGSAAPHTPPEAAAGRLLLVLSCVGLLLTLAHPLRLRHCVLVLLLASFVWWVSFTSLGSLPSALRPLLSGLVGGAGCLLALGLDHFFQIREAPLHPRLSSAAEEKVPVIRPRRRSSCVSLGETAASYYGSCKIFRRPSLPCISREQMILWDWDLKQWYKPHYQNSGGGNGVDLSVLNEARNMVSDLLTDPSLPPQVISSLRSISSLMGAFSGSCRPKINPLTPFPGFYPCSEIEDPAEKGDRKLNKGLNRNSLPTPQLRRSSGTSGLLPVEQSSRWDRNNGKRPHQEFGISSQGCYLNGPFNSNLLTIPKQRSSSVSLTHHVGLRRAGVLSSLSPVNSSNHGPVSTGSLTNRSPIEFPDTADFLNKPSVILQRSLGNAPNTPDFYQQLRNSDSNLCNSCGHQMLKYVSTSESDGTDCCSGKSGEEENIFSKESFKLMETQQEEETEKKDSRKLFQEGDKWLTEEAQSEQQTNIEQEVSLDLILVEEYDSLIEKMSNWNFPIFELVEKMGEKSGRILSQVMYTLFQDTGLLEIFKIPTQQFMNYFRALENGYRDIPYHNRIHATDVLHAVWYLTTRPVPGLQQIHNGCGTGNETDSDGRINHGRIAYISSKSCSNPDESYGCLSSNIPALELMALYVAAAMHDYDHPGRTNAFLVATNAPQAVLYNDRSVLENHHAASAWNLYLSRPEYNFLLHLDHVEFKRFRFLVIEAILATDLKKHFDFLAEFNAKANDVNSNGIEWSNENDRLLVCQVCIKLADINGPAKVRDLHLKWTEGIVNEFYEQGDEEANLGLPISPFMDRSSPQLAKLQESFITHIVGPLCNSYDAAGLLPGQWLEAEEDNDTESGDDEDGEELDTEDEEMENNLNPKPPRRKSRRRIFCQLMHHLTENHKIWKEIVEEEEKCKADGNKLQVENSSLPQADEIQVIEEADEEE

Question: For `COc1ccc([C@@H]2CNC(=O)C2)cc1OC1CCCC1` (racemic) [Adeo], which IC50 is on record?
Answer: > 100 µM

Question: With `COc1cccc(COc2cc(C(=O)O)cc(N3CC(c4ccc(OC)c(OC5CCCC5)c4)CC3=O)c2)c1` (centres undefined) as the compound, how does the IC50 read?
Answer: > 100 µM

Question: With `COc1cccc(COc2cccc(N3CC(c4ccc(OC)c(OC5CCCC5)c4)CC3=O)c2)c1` (centres undefined) as the compound, how does the IC50 read?
Answer: > 100 µM

Question: For `COc1cccc(COc2cc(C(=O)NN(C)C)cc(N3CC(c4ccc(OC)c(OC5CCCC5)c4)CC3=O)c2)c1` (centres undefined), which IC50 is on record?
Answer: > 100 µM
